Data published in ChEMBL document CHEMBL1641425, “Discovery of 1-(3,4-dichlorophenyl)-N,N-dimethyl-1,2,3,4-tetrahydroquinolin-4-amine, a dual serotonin and dopamine reuptake inhibitor” (Bioorg Med Chem Lett, 2011).

What was measured:
[1] = target: Sodium-dependent serotonin transporter (Homo sapiens, UniProt P31645); test: Inhibition of human recombinant 5HT transporter
[2] = target: Sodium-dependent noradrenaline transporter (Homo sapiens, UniProt P23975); test: Inhibition of human recombinant norepinephrine transporter
Chain of Sodium-dependent noradrenaline transporter (P23975 whole entry): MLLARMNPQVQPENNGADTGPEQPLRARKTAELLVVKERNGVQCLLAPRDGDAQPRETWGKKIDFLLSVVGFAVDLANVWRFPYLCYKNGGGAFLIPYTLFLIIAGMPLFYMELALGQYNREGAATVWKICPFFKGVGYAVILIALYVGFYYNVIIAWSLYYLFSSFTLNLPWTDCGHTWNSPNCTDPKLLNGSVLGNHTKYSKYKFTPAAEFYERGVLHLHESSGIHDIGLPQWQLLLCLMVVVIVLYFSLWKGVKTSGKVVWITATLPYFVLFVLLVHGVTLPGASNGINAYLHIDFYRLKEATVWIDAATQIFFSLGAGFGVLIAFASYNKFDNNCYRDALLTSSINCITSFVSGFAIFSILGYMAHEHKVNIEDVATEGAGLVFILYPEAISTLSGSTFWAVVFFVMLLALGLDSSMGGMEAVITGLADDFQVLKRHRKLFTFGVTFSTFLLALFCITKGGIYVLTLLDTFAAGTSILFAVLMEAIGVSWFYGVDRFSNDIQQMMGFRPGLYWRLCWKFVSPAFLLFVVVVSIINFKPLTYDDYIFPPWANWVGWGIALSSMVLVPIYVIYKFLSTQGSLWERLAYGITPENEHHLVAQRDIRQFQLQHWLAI

[3] = target: Sodium-dependent dopamine transporter (Homo sapiens, UniProt Q01959); test: Inhibition of human recombinant dopamine transporter
Chain of Sodium-dependent dopamine transporter (Q01959 whole entry): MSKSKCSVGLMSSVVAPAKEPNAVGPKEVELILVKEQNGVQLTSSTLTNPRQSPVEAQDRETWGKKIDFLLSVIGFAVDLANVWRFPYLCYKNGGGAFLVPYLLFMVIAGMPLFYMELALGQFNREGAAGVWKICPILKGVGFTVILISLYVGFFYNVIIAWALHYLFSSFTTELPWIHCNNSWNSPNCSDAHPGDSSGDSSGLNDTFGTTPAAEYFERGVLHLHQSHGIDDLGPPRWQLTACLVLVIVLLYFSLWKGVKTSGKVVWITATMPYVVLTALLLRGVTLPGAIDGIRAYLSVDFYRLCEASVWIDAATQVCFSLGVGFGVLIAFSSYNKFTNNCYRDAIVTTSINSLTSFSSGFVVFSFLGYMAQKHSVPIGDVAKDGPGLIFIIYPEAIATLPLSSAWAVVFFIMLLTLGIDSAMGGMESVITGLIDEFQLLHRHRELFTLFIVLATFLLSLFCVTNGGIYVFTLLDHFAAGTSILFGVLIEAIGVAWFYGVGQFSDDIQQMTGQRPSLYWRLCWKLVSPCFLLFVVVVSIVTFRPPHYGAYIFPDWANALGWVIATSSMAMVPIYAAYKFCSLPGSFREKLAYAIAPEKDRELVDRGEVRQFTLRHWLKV

[4] = Half life in human microsomes; format: ADME, Microsome
[5] = Half life in mouse microsomes; format: ADME, Microsome
[6] = Inhibition of CYP1A; format: ADME
Cytochrome P450 2C9 = Cytochrome P450 2C9 (Homo sapiens, UniProt P11712); test: Inhibition of CYP2C9; format: ADME
Chain of Cytochrome P450 2C9 (P11712 whole entry): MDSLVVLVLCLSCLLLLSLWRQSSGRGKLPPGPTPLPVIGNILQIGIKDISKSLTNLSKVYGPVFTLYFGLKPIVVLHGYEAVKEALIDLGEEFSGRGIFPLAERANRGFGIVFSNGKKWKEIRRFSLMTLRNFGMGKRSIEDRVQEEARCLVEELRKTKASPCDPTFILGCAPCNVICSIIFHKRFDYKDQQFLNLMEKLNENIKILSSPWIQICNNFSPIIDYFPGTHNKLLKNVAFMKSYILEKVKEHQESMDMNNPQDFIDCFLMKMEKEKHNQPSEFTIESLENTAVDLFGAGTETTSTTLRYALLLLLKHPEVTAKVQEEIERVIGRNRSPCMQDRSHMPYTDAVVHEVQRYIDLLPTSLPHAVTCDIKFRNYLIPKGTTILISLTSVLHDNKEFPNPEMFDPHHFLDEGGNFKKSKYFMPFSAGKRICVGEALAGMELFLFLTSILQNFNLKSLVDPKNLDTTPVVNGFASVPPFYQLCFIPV

Cytochrome P450 2C19 = Cytochrome P450 2C19 (Homo sapiens, UniProt P33261); test: Inhibition of CYP2C19; format: ADME
Chain of Cytochrome P450 2C19 (P33261 whole entry): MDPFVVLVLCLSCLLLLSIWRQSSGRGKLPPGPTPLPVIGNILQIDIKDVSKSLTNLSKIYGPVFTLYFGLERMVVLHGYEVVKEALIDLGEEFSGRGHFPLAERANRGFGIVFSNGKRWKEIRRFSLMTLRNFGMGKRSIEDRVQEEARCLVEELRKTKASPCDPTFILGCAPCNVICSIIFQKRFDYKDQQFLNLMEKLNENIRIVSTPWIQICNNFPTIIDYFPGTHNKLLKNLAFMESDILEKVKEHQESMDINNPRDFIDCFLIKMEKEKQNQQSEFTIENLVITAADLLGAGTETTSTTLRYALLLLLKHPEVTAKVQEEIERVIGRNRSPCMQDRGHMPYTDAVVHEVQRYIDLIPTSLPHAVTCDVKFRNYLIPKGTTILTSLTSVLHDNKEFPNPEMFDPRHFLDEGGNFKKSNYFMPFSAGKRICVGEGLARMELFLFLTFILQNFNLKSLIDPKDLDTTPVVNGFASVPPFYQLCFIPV

Cytochrome P450 2D6 = Cytochrome P450 2D6 (Homo sapiens, UniProt P10635); test: Inhibition of CYP2D6; format: ADME
Chain of Cytochrome P450 2D6 (P10635 whole entry): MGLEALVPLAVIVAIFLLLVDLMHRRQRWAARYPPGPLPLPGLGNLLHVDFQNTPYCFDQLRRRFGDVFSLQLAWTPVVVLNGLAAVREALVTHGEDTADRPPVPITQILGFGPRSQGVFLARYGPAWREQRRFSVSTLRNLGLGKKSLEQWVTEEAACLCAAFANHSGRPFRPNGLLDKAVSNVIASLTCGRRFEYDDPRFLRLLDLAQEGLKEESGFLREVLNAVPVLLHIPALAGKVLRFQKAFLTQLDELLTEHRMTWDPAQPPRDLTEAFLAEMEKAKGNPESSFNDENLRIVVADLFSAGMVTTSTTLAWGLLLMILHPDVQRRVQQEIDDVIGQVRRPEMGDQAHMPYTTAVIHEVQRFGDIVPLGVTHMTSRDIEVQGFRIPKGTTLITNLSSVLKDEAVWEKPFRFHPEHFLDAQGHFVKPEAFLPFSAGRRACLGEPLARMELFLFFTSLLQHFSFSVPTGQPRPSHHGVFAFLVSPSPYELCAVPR

Cytochrome P450 3A4 = Cytochrome P450 3A4 (Homo sapiens, UniProt P08684); test: Inhibition of CYP3A4; format: ADME
Chain of Cytochrome P450 3A4 (P08684 whole entry): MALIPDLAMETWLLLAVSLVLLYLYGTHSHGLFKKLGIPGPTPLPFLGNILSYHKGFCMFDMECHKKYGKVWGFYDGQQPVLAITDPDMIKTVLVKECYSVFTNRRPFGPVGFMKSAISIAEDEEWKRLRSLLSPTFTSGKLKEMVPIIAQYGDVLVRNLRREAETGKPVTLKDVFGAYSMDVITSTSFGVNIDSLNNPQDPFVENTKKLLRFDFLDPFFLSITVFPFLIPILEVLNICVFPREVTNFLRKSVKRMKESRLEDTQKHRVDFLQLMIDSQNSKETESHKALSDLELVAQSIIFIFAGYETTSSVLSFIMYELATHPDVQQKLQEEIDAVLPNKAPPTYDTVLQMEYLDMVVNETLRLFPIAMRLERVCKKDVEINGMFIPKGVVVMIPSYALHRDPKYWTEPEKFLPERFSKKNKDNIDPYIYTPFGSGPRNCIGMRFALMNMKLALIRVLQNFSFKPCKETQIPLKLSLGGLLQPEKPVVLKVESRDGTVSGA

[7] = target: Voltage-gated inwardly rectifying potassium channel KCNH2 (Homo sapiens, UniProt Q12809)
Chain of Voltage-gated inwardly rectifying potassium channel KCNH2 (Q12809 whole entry): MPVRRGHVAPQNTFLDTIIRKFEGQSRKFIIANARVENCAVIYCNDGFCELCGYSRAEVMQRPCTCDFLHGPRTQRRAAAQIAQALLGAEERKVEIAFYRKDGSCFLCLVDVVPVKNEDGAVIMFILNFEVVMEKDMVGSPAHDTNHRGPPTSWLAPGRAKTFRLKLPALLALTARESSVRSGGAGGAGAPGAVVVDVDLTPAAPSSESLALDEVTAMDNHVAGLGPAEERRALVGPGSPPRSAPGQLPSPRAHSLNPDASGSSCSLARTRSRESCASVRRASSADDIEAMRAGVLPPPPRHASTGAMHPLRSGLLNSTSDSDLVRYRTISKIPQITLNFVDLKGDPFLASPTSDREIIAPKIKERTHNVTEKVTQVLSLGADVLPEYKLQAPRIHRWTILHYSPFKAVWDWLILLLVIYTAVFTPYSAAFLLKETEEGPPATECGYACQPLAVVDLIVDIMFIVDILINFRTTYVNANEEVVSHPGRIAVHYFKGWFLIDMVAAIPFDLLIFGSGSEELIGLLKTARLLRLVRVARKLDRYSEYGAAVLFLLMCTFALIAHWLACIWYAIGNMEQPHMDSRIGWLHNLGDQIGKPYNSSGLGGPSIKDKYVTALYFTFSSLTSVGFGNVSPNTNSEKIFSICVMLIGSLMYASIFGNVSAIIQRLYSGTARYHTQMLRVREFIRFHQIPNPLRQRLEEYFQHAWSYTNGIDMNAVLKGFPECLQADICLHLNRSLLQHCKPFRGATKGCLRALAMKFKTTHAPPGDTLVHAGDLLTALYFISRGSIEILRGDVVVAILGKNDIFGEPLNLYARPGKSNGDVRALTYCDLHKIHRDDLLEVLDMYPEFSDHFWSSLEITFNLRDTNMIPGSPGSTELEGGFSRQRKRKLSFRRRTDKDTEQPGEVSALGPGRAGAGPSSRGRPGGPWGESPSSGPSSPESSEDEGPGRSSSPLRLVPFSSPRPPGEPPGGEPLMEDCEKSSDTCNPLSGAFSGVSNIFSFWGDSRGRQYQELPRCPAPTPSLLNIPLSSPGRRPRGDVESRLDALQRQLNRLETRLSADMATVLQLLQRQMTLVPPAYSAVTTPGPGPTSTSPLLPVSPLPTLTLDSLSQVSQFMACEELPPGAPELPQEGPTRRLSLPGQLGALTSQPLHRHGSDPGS

Chain of Sodium-dependent serotonin transporter (P31645 whole entry): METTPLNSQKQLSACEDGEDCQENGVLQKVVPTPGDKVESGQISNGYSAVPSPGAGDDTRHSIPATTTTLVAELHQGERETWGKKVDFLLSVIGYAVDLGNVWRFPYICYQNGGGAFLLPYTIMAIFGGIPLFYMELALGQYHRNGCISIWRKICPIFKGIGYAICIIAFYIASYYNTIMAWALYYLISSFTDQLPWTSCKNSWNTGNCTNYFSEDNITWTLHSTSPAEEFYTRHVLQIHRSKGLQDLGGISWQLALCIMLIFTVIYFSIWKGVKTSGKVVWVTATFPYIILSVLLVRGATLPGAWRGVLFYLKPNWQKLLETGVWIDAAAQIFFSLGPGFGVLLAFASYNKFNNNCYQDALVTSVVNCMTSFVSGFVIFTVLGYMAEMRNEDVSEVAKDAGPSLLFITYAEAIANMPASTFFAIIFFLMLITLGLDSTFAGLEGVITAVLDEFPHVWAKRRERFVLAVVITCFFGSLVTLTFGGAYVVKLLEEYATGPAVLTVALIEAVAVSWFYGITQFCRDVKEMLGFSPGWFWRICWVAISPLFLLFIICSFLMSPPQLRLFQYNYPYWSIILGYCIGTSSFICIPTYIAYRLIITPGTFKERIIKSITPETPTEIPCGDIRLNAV

`N[C@H]1Cc2ccccc2N(c2ccc(Cl)c(Cl)c2)C1` gave an IC50 [1] of 2400 nM, an IC50 [2] of 1850 nM and an IC50 [3] of 465 nM.

`CN[C@H]1Cc2ccccc2[C@@H](c2ccc(Cl)c(Cl)c2)C1` showed an IC50 [3] of 72 nM.

In the case of `NC1CCN(c2ccc(Cl)c(Cl)c2)c2ccccc21` (stereo unspecified), the IC50 [1] is reported as 650 nM, the IC50 [2] is reported as 926 nM and the IC50 [3] is reported as 246 nM.

In the case of `CN(C)C1CCN(c2ccc(Cl)c(Cl)c2)c2ccccc21` (stereo unspecified), the IC50 [1] is reported as 3 nM, the IC50 [2] is reported as 7140 nM and the IC50 [3] is reported as 5030 nM.

For `CNC1CCN(c2ccc(Cl)c(Cl)c2)c2ccccc21` (stereo unspecified), the IC50 [1] was 20 nM, the IC50 [2] was 934 nM and the IC50 [3] was 39 nM. The half-life [4] was 3.32 h, the half-life [5] was 0.367 h and the IC50 [6] was > 25000 nM. For the same compound, the IC50 (Cytochrome P450 2C9) was > 25000 nM, the IC50 (Cytochrome P450 2C19) was 14100 nM and the IC50 (Cytochrome P450 2D6) was 3000 nM. For the same compound, the IC50 (Cytochrome P450 3A4) was > 25000 nM and the IC50 [7] was 7800 nM.

For `N[C@@H]1CCN(c2ccc(Cl)c(Cl)c2)c2ccccc21`, the IC50 [1] was 116 nM, the IC50 [2] was 138 nM and the IC50 [3] was 12 nM. The half-life [4] was > 5 h, the half-life [5] was 3.35 h and the IC50 [6] was > 25000 nM. For the same compound, the IC50 (Cytochrome P450 2C9) was > 25000 nM, the IC50 (Cytochrome P450 2C19) was > 25000 nM and the IC50 (Cytochrome P450 2D6) was 4870 nM. For the same compound, the IC50 (Cytochrome P450 3A4) was > 25000 nM and the IC50 [7] was 3500 nM.

Compound `CN[C@@H]1CCN(c2ccc(Cl)c(Cl)c2)c2ccccc21` has an IC50 [1] of 132 nM, an IC50 [2] of 601 nM and an IC50 [3] of 8 nM. The half-life [4] was > 5 h, the half-life [5] was > 5 h and the IC50 [6] was > 25000 nM. For the same compound, the IC50 (Cytochrome P450 2C9) was > 25000 nM, the IC50 (Cytochrome P450 2C19) was 19000 nM and the IC50 (Cytochrome P450 2D6) was 1500 nM. The IC50 (Cytochrome P450 3A4) was > 25000 nM and the IC50 [7] was 3250 nM.

With `CN(C)[C@@H]1CCN(c2ccc(Cl)c(Cl)c2)c2ccccc21` the IC50 [1] was 7 nM, the IC50 [2] was 1180 nM and the IC50 [3] was 16 nM. The half-life [4] was > 5 h, the half-life [5] was 0.005 h and the IC50 [6] was > 25000 nM. The IC50 (Cytochrome P450 2C9) was 250 nM, the IC50 (Cytochrome P450 2C19) was > 25000 nM and the IC50 (Cytochrome P450 2D6) was 6020 nM. For the same compound, the IC50 (Cytochrome P450 3A4) was > 25000 nM.

For `NC1Cc2ccccc2N(c2ccc(Cl)c(Cl)c2)C1` (stereo unspecified), the IC50 [1] was 2550 nM, the IC50 [2] was 2600 nM and the IC50 [3] was 605 nM.

For `CN(C)C1Cc2ccccc2N(c2ccc(Cl)c(Cl)c2)C1` (stereo unspecified), the IC50 [1] was 436 nM, the IC50 [2] was 1860 nM and the IC50 [3] was 122 nM.

In the case of `CNC1Cc2ccccc2N(c2ccc(Cl)c(Cl)c2)C1` (stereo unspecified), the IC50 [1] is reported as 985 nM, the IC50 [2] is reported as 1010 nM and the IC50 [3] is reported as 177 nM.

With `CN[C@H]1Cc2ccccc2N(c2ccc(Cl)c(Cl)c2)C1` the IC50 [1] was 128 nM, the IC50 [2] was 1250 nM and the IC50 [3] was 100 nM. It also gave a half-life [4] of 3.95 h, a half-life [5] of 0.333 h and an IC50 (Cytochrome P450 2D6) of 100 nM.

Compound `CN(C)[C@H]1Cc2ccccc2N(c2ccc(Cl)c(Cl)c2)C1` has an IC50 [1] of 5560 nM, an IC50 [2] of 3090 nM and an IC50 [3] of 309 nM.
